Reference: ChEMBL document CHEMBL5614390, “Novel EGFR inhibitors against resistant L858R/T790M/C797S mutant for intervention of non-small cell lung cancer” (Eur J Med Chem, 2024)
Calls of active or inactive are those of the source. No cut-off for these calls is given here.

Tests used:
PC-9 [1] = assay: Induction of cell cycle arrest in human PC-9 cells expressing EGFR Del19/T790M/C797S mutant assessed as accumulation of cells at G0/G1 phase at low dose incubated for 24 hrs by PI staining based flow cytometric analysis; format: functional
PC-9 [2] = assay: Induction of cell cycle arrest in human PC-9 cells expressing EGFR Del19/T790M/C797S mutant assessed as S phase cells at 0.1 to 1 uM incubated for 24 hrs by PI staining based flow cytometric analysis (reference value: 32.4 +/- 1.1 %); format: functional; conditions: dose 0.1-1 µM
PC-9 [3] = assay: Induction of apoptosis in human PC-9 cells expressing EGFR L858R/T790M/C797S mutant assessed as late apoptotic cells at 0.1 uM incubated for 48 hrs by Annexin V-FITC/PI staining based flow cytometric analysis (reference value: 0.360 %); format: functional
PC-9 [4] = assay: Induction of apoptosis in human PC-9 cells expressing EGFR L858R/T790M/C797S mutant assessed as viable cells at 0.5 uM incubated for 48 hrs by Annexin V-FITC/PI staining based flow cytometric analysis (reference value: 98.9 %); format: functional; conditions: read-out: Activity
PC-9 [5] = assay: Induction of apoptosis in human PC-9 cells expressing EGFR L858R/T790M/C797S mutant assessed as early apoptotic cells at 0.5 uM incubated for 48 hrs by Annexin V-FITC/PI staining based flow cytometric analysis (reference value: 0.210 %); format: functional
PC-9 [6] = assay: Induction of apoptosis in human PC-9 cells expressing EGFR L858R/T790M/C797S mutant assessed as necrotic cells at 0.5 uM incubated for 48 hrs by Annexin V-FITC/PI staining based flow cytometric analysis (reference value: 0.540 %); format: functional
PC-9 [7] = assay: Induction of apoptosis in human PC-9 cells expressing EGFR L858R/T790M/C797S mutant assessed as viable cells at 1 uM incubated for 48 hrs by Annexin V-FITC/PI staining based flow cytometric analysis (reference value: 98.9 %); format: functional; conditions: Homo sapiens, PC-9, read-out: Activity
PC-9 [8] = assay: Induction of apoptosis in human PC-9 cells expressing EGFR L858R/T790M/C797S mutant assessed as necrotic cells at 1 uM incubated for 48 hrs by Annexin V-FITC/PI staining based flow cytometric analysis (reference value: 0.540 %); format: functional
PC-9 [9] = assay: Induction of apoptosis in human PC-9 cells expressing EGFR Del19/T790M/C797S mutant assessed as late apoptotic cells at 0.1 uM incubated for 48 hrs by Annexin V-FITC/PI staining based flow cytometric analysis (reference value: 0.040 %); format: functional
PC-9 [10] = assay: Induction of apoptosis in human PC-9 cells expressing EGFR Del19/T790M/C797S mutant assessed as viable cells at 0.5 uM incubated for 48 hrs by Annexin V-FITC/PI staining based flow cytometric analysis (reference value: 99.8 %); format: functional; conditions: read-out: Activity
PC-9 [11] = assay: Induction of apoptosis in human PC-9 cells expressing EGFR Del19/T790M/C797S mutant assessed as early apoptotic cells at 0.5 uM incubated for 48 hrs by Annexin V-FITC/PI staining based flow cytometric analysis (reference value: 0.050 %); format: functional
PC-9 [12] = assay: Induction of apoptosis in human PC-9 cells expressing EGFR Del19/T790M/C797S mutant assessed as late apoptotic cells at 0.5 uM incubated for 48 hrs by Annexin V-FITC/PI staining based flow cytometric analysis (reference value: 0.040 %); format: functional
PC-9 [13] = assay: Induction of apoptosis in human PC-9 cells expressing EGFR Del19/T790M/C797S mutant assessed as early apoptotic cells at 1 uM incubated for 48 hrs by Annexin V-FITC/PI staining based flow cytometric analysis (reference value: 0.050 %); format: functional
PC-9 [14] = assay: Induction of apoptosis in human PC-9 cells expressing EGFR Del19/T790M/C797S mutant assessed as late apoptotic cells at 1 uM incubated for 48 hrs by Annexin V-FITC/PI staining based flow cytometric analysis (reference value: 0.040 %); format: functional
PC-9 [15] = assay: Induction of apoptosis in human PC-9 cells expressing EGFR Del19/T790M/C797S mutant assessed as necrotic cells at 1 uM incubated for 48 hrs by Annexin V-FITC/PI staining based flow cytometric analysis (reference value: 0.090 %); format: functional
PC-9 [16] = assay: Antitumor activity against human PC-9 cells expressing EGFR L858R/T790M/C797S mutant xenografted in BALB/c nude mouse assessed as reduction in tumor volume at 10 to 40 mg/kg, po administered for 18 days; format: functional, organism-based; conditions: dose 10-40 mg/kg, time 18.0 day
PC-9 [17] = assay: Antitumor activity against human PC-9 cells expressing EGFR L858R/T790M/C797S mutant xenografted in BALB/c nude mouse assessed as reduction in tumor weight at 10 to 40 mg/kg, po administered for 18 days; format: functional, organism-based; conditions: dose 10-40 mg/kg, time 18.0 day
PC-9 [18] = assay: Antitumor activity against human PC-9 cells expressing EGFR L858R/T790M/C797S mutant xenografted in BALB/c nude mouse assessed as tumor growth inhibition at 10 mg/kg, po administered for 18 days relative to control; format: functional; conditions: PC-9, 432 h, time 18 day, read-out: TGI
PC-9 [19] = assay: Antitumor activity against human PC-9 cells expressing EGFR L858R/T790M/C797S mutant xenografted in BALB/c nude mouse assessed as tumor growth inhibition at 20 mg/kg, po administered for 18 days relative to control; format: functional; conditions: PC-9, 432 h, time 18 day, read-out: TGI
PC-9 [20] = assay: Antitumor activity against human PC-9 cells expressing EGFR L858R/T790M/C797S mutant xenografted in BALB/c nude mouse assessed as tumor growth inhibition at 40 mg/kg, po administered for 18 days relative to control; format: functional; conditions: Mus musculus, PC-9, 432 h, time 18 day, read-out: TGI
[21] = Metabolic stability in dog liver microsomes assessed as half-life at 10 uM preincubated for 5 mins followed by NADPH addition and measured upto 60 mins by HPLC analysis; format: ADME, Canis lupus familiaris, Microsome; conditions: time < 65 min
[22] = Metabolic stability in human liver microsomes assessed as half-life at 10 uM preincubated for 5 mins followed by NADPH addition and measured upto 60 mins by HPLC analysis; format: ADME, Microsome; conditions: time < 65 min
[23] = Metabolic stability in mouse liver microsomes assessed as intrinsic clearance at 10 uM preincubated for 5 mins followed by NADPH addition and measured upto 60 mins by HPLC analysis; format: ADME, Microsome; conditions: time < 65 min, read-out: CLH
[24] = Metabolic stability in rabbit liver microsomes assessed as intrinsic clearance at 10 uM preincubated for 5 mins followed by NADPH addition and measured upto 60 mins by HPLC analysis; format: ADME, Oryctolagus cuniculus, Microsome; conditions: time < 65 min, read-out: CLH
PC-9 [25] = assay: cells; conditions: Homo sapiens, PC-9, 72 h
Description: Cytotoxicity against human PC-9 cells expressing EGFR L858R/T790M/C797S mutant assessed as inhibition of cell proliferation incubated for 72 hrs by CCK8 assay

PC-9 [26] = assay: cells; conditions: Homo sapiens, PC-9, 72 h; remark: listed apart in the source
Description: Cytotoxicity against human PC-9 cells expressing EGFR Del19/T790M/C797S mutant assessed as inhibition of cell proliferation incubated for 72 hrs by CCK8 assay

PC-9 [27] = assay: cells; conditions: Homo sapiens, PC-9, 72 h; remark: listed apart in the source
Description: Cytotoxicity against human PC-9 cells expressing EGFR Del19 mutant assessed as inhibition of cell proliferation incubated for 72 hrs by CCK8 assay

A-431 = assay: cells; conditions: Homo sapiens, A-431, 72 h
Description: Cytotoxicity against human A-431 cells assessed as inhibition of cell proliferation incubated for 72 hrs by CCK8 assay

MCF7 = assay: cells; conditions: Homo sapiens, MCF7, 72 h
Description: Cytotoxicity against human MCF7 cells assessed as inhibition of cell proliferation incubated for 72 hrs by CCK8 assay

C=CC(=O)Nc1cc(Nc2ncc(F)c(-c3ccc4cc(C(=O)NC)n(C(C)C)c4c3)n2)ccc1N1CCN(C)CC1
Activity (PC-9 [1]): Active | Activity (PC-9 [2]): 15.6% | Activity (PC-9 [3]): 7.25% | viability at 0.5 µM (PC-9 [4]): 61.2% | Activity (PC-9 [5]): 30.3% | Activity (PC-9 [6]): 1.77% | viability at 1 µM (PC-9 [7]): 58.8% | Activity (PC-9 [8]): 0.91% | Activity (PC-9 [9]): 7.34% | viability at 0.5 µM (PC-9 [10]): 82.8% | Activity (PC-9 [11]): 11.8% | Activity (PC-9 [12]): 4.19% | Activity (PC-9 [13]): 11.6% | Activity (PC-9 [14]): 8.3% | Activity (PC-9 [15]): 1.01% | Activity (PC-9 [16]): Active | Activity (PC-9 [17]): Active | inhibition in vivo at 10 mg/kg (PC-9 [18]): 48.7% | inhibition in vivo at 20 mg/kg (PC-9 [19]): 58.4% | inhibition in vivo at 40 mg/kg (PC-9 [20]): 70.6% | half-life at 10 µM [21]: 4.28 h | half-life at 10 µM [22]: 3.85 h | microsomal CLint at 10 µM [23]: 56 µL/min/mg | microsomal CLint at 10 µM [24]: 32.7 µL/min/mg | IC50 (PC-9 [25]): 52 nM | IC50 (PC-9 [26]): 201 nM | IC50 (PC-9 [27]): 144 nM | IC50 (A-431): 1070 nM | IC50 (MCF7): 3610 nM
